# Patent US20110112099A1, “THERAPEUTIC AGENT FOR CANCER RESISTANT TO PROTEASE INHIBITOR” (KYOWA HAKKO KIRIN CO., LTD., priority 2007, published 2011)
# Like-named read-outs stand apart in the source and are kept apart here. Where a SMILES comes first, the peptide text is derived from it. The star is where a group is joined. Cbz = O=C(OCc1ccccc1)*
# Columns and labels:
# OPM-2 cells = test: Test for the growth inhibition to OPM-2 (WST-1, 72 hours); type: cell-based, human; conditions: read-out: IC50 OPM-2 (growth-inhibitory effect, viable cell number)
# Experimental: (§1) A cell solution (90 μL/well) of OPM-2 or OPM-2/Bor suspended in an RPMI1640 medium containing 10% FCS (hereinafter referred to as culture medium) at a concentration of 5×10^4 cells/mL was inoculated in a 96-well microplate (Nunc), and as for a blank the culture medium (100 μL/well each) was added, and the plate was incubated in a 5% carbon dioxide incubator for 5 hours.
# (§2) The test compound was serially diluted to yield a diluted solution having a concentration of 10-fold of the final concentration and the solution (10 μL/well each) was added (n=3 for one concentration). As for a control, the culture medium containing no test compound (10 μL/well each) was added. The tests for the control and the blank were performed in n=8. The incubation was carried out for 72 hours after addition of the test compound, and the number of viable cells was counted with a cell proliferation reagent WST-1 (WST-1 reagent; Roche Diagnostics). The WST-1 reagent (10 μL/well) was added to each plate. The plate was incubated in a carbon dioxide incubator for 2 hours, then stirred on a plate mixer, and the absorbance was measured at 450 nm and 655 nm using a microplate spectrophotometer (Molecular Device; SPECTRAmax 340PC-384). For each well, the differential absorbance was calculated by subtracting the absorbance at 655 nm from that at 450 nm. Further, the absorbance corresponding to the viable cell number was calculated by subtracting the differential absorbance of the blank from the above differential absorbance.
# (§3) The followings describe the calculation method for IC50. The absorbance corresponding to the viable cell number obtained in the wells untreated with the test compound was regarded as 100%, and the absorbance obtained in the wells treated with the test compound was represented by the relative value (% control). From these values, the IC50 of viable cell number (the concentration at which the viable cell number is reduced to 50% of the control) was calculated. FIGS. 5 to 8 show the % control at the respective concentration of the test compound after treatment with the test compound. […]
# [1] = tested on: refractory/recurrent multiple myeloma; conditions: clinical, New England Journal of Medicine 348, 2609; cited from earlier work
# [2] = tested on: KMS-11/Bor (bortezomib-resistant KMS-11 cells); test: Test for the growth inhibition to KMS-11/Bor (WST-1, 72 hours); type: cell-based, human; conditions: for IC50: KMS-11/Bor cells, 72 hours, WST-1, read-out: IC50 KMS-11/Bor (growth-inhibitory effect, viable cell number); for IC50 ratio (IC50 of KMS-11/Bor divided by IC50 of KMS-11): degree of bortezomib resistance, KMS-11/Bor vs KMS-11
# Experimental: KMS-11 cells were suspended in an RPMI1640 medium containing 10% fetal calf serum (FCS) at a concentration of 5×10^4 cells/mL, and incubated at 37° C. in a 5% carbon dioxide incubator. Then, bortezomib was added thereto to adjust the final concentration of 5 nmol/L, and the incubation was continued. After confirmation of the survival and satisfactory growth of the cells, the cells were suspended at a concentration of 5×10^4 cells/mL, then bortezomib was added at a concentration of 10 nmol/L, and the incubation was continued. Then, after confirmation of the survival and satisfactory growth of the cells, the concentration of bortezomib was increased step by step, and the culture and subculture were repeated to create the bortezomib-resistant KMS-11 cells being capable of growing at a concentration of 100 nmol/L of bortezomib. Hereinafter, thus prepared cell line was referred to as “KMS-11/Bor”.
# as §1, with “KMS-11” for “OPM-2”, “KMS-11/Bor” for “OPM-2/Bor”
# as §2, with “final concentration,” for “final concentration”
# (§4) The followings describe the calculation method for IC50. The absorbance corresponding to the viable cell number obtained in the wells untreated with the test compound was regarded as 100%, and the absorbance obtained in the wells treated with the test compound was represented by the relative value (% control). From these values, the IC50 of viable cell number (the concentration at which the viable cell number is reduced to 50% of the control) was calculated. FIGS. 1 to 4 show the % control at the respective concentration of the test compound after treatment with the test compound. […] In addition, values in which IC50 of KMS-11/Bor is divided by IC50 of KMS-11 (IC50 ratio) is shown in Table 3 as the degree of bortezomib resistance in the respective test compounds.
# KMS-11 cells = test: Test for the growth inhibition to KMS-11 (WST-1, 72 hours); type: cell-based, human; conditions: read-out: IC50 KMS-11 (growth-inhibitory effect, viable cell number)
# Experimental: as §1, with “KMS-11” for “OPM-2”, “KMS-11/Bor” for “OPM-2/Bor”
# as §2, with “final concentration,” for “final concentration”
# as §3, with “FIGS. 1” for “FIGS. 5”, “to 4” for “to 8”
# [3] = tested on: OPM-2/Bor (bortezomib-resistant OPM-2 cells); test: Test for the growth inhibition to OPM-2/Bor (WST-1, 72 hours); type: cell-based, human; conditions: for IC50: OPM-2/Bor cells, 72 hours, WST-1, read-out: IC50 OPM/Bor (growth-inhibitory effect, viable cell number); for IC50 ratio (IC50 of OPM-2/Bor divided by IC50 of OPM-2): degree of bortezomib resistance, OPM-2/Bor vs OPM-2
# Experimental: OPM-2 cells were suspended in an RPMI1640 medium containing 10% fetal calf serum (FCS) at a concentration of 5×10^4 cells/mL, and incubated at 37° C. in a 5% carbon dioxide incubator. Then, bortezomib was added thereto to adjust the final concentration of 2.5 nmol/L, and the incubation was continued. After confirmation of the survival and satisfactory growth of the cells, bortezomib was added at a concentration of 3.75 nmol/L, and the incubation was continued. Then, after confirmation of the survival and satisfactory growth of the cells, the concentration of bortezomib was increased step by step, and the culture and subculture were repeated to create the bortezomib-resistant OPM-2 cells being capable of growing at a concentration of 15 nmol/L of bortezomib. Hereinafter, thus prepared cell line was referred to as “OPM-2/Bor”.
# as §1, §2
# as §4, with “FIGS. 5” for “FIGS. 1”, “to 8” for “to 4”, “IC50 ratio for OPM-2/Bor was” for “IC50 of KMS-11/Bor is”, “of OPM-2” for “of KMS-11”, “Table 4” for “Table 3”
# OPM-2/Bor cells = test: Anti-tumor effect in a mouse model to which the OPM-2/Bor cells have been implanted; type: in vivo; conditions: for T/C value (V/V0 of group divided by V/V0 of negative control group): Day 14, OPM-2/Bor implanted scid mice
# Experimental: The day before the implantation of cancer cells, an anti-asialo GM1 antibody (0.3 mg/mouse each) was administered intraperitoneally to Fox C. B-17/Icr-scidJcl mice (CLEA Japan, Inc.). The OPM-2/Bor cells were grown by incubation in an RPMI1640 medium containing 10% FCS at 37° C. in a 5% carbon dioxide incubator, and implanted into the ventral subcutaneous portion at a dose of 1×10^7 cells/mouse. Eighteen days after implantation, the major axis and minor axis of the tumor growing in the subcutaneous portion were measured with a vernier micrometer, and the tumor volume was calculated according to the following equation.
# At the same time, the body weight of each mouse was measured, and the mice were divided into the following administration groups consisting of 5 mice per group so that the average tumor volume and the average body weight became uniform; and this day was regarded as the test-starting day 0, on which the administration was started.
# Compound 22 was dissolved in physiological saline (Otsuka Pharmaceutical Co., Ltd.) at a concentration of 10 or 5 mg/mL, and administered intravenously in the tail vein at a dose of 0.01 mL/g body weight of mouse, respectively, (corresponding to 100 mg/kg and 50 mg/kg) twice a day continuously up to the 4th day from the starting day 0.
# Bortezomib was dissolved in physiological saline at a concentration of 0.1 or 0.05 mg/mL, and administered intravenously in the tail vein at a dose of 0.01 mL/g body weight of mouse, respectively, (corresponding to […] and 0.5 mg/kg) once a day on the starting day 0, […].
# A. Negative control group (Control): No administration of the test compound B. Bortezomib administered group: 1 mg/kg (administered once a day on the days 0, 3, 7, and 10) C. […]
# Following the day 0, the tumor volume was measured twice a week. The anti-tumor effect was determined by calculating the average value of the tumor volume in each group and comparing a change of the tumor volume (V/V0), wherein the tumor volume on the day 0 was defined as V0.
# [4] = tested on: refractory/recurrent multiple myeloma; conditions: phase I, 17-AAG alone; cited from earlier work
# [5] = tested on: refractory/recurrent multiple myeloma; conditions: phase I, IPI-504 alone; cited from earlier work
SMILES,IC50 (OPM-2 cells; Homo sapiens),Share of refractory/recurrent multiple myeloma in which the drug is effective [1],Share of refractory/recurrent multiple myeloma in which the drug is ineffective [1],IC50 ([2]; Homo sapiens),IC50 ratio (IC50 of KMS-11/Bor divided by IC50 of KMS-11) [2],IC50 (KMS-11 cells; Homo sapiens),IC50 ([3]; Homo sapiens),IC50 ratio (IC50 of OPM-2/Bor divided by IC50 of OPM-2) [3],"T/C value (V/V0 of group divided by V/V0 of negative control group) (OPM-2/Bor cells; B group: 1 mg/kg intravenously once a day on days 0, 3, 7, 10)","T/C value (V/V0 of group divided by V/V0 of negative control group) (OPM-2/Bor cells; C group: 0.5 mg/kg intravenously once a day on days 0, 3, 7, 10)","Anti-tumor effect, change of tumor volume (V/V0), FIG. 9 (OPM-2/Bor cells; OPM-2/Bor implanted mice, Compound 22 100 and 50 mg/kg, bortezomib 1 and 0.5 mg/kg)",IC50 (OPM-2 cells),IC50 [2],IC50 (KMS-11 cells),IC50 [3],Patients with stable disease (SD) or more effect [4],Cases with SD as anti-tumor effect [5]
"CC(C)C[C@H](NC(=O)[C@H](Cc1ccccc1)NC(=O)c1cnccn1)B(O)O [Bortezomib, bortezomib]",3.9 nM,approximately 35%,approximately 40%,170 nM,21,8.2 nM,110 nM,28,0.85,1.0,did not show a remarkable growth inhibitory effect,–,–,–,–,–,–
"C=CCNC1=C2C[C@@H](C)C[C@H](OC)[C@H](O)[C@@H](C)/C=C(\C)[C@H](OC(N)=O)[C@@H](OC)/C=C\C=C(/C)C(=O)NC(=CC1=O)C2=O [Compound 17-AAG, 17-allylamino-17-demethoxygeldanamycin]",–,–,–,–,0.76,–,–,1.1,–,–,–,310 nM,62 nM,82 nM,350 nM,9 out of the 22,–
C=CCNc1c(O)cc2c(O)c1C[C@@H](C)C[C@H](OC)[C@H](O)[C@@H](C)/C=C(\C)[C@H](OC(N)=O)[C@@H](OC)/C=C\C=C(/C)C(=O)N2 [IPI-504],–,–,–,–,–,–,–,–,–,–,–,–,–,–,–,–,3 out of the 17
CC(C)C[C@@H](C=O)NC(=O)[C@H](CC(C)C)NC(=O)[C@H](CC(C)C)NC(=O)OCc1ccccc1 [MG-132] (Cbz-Leu-Leu-Leu-aldehyde),94 nM,–,–,2000 nM,7.7,260 nM,1500 nM,16,–,–,–,–,–,–,–,–,–
